Calls of active or inactive are those of the source.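 How the source made its calls: active means compounds giving half or more protection of infected cells from virus-caused growth loss, again on retest; inactive means the rest.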
Tested on: CEM cells HIV-1 protection, formazan growth assay
Assay: NCI AIDS Antiviral Assay
Conditions: for IC50: measured here: growth of uninfected CEM cells
Method in brief: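 Soluble formazan readout of cell growth; CEM cells ± HIV-1; 5 drug concs. ≥50% protection → retest; ≥50% again = moderately active; reproducible 100% = confirmed active.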

CC(=O)OCC1OC(n2c(C)c(N=Nc3ccc(C)cc3)c(C)c(C#N)c2=S)C(OC(C)=O)C(OC(C)=O)C1OC(C)=O (stereo not given)
EC50: > 200 µM | IC50: > 200 µM

C=Cc1c(C#N)nc(C)c(C)c1-c1ccc(OC)c(OC)c1OCc1ccccc1
EC50: > 200 µM | IC50: 14.1 µM

CCOC(OC1=C(C#N)CCC1)C(CC)[Se]c1ccccc1 (stereo not given)
EC50: > 70.8 µM | IC50: 52.5 µM

CC(=O)N1CCN(CCCCN2c3ccccc3Sc3cc(N=[N+]=[N-])ccc32)CC1
EC50: > 200 µM | IC50: 6.61 µM

CCC1(CC)CC(=NNS(=O)(=O)c2ccc(C)cc2)C1
outcome: inactive

CCCCC1Sc2cc(OC)cc3nnn(c23)C1=O (stereo not given)
EC50: > 200 µM | IC50: > 200 µM

C(=C\c1csnn1)/c1cccnc1
EC50: > 316 µM | IC50: 182 µM

N#C/C(=C\c1ccc(Cl)cc1)C(=O)c1ccccc1
EC50: > 83.2 µM | IC50: > 83.2 µM

COC1=NC2=NCCN2C(OC)=N1
EC50: > 200 µM | IC50: > 200 µM

CC(NC(=O)/C(=C/c1ccccc1O)NC(=O)c1ccccc1)C(=O)O (stereo not given)
EC50: > 200 µM | IC50: > 200 µM

O=S(=O)(O)c1ccc(N=Nc2ccc(N=Nc3cccc4ccccc34)c(S(=O)(=O)O)c2)cc1
EC50: > 50.1 µM | IC50: > 50.1 µM

NC(=O)NCOC(=S)SSSC(=S)OCNC(N)=O
EC50: > 200 µM | IC50: 32.4 µM

COc1cc2cc(OC)c3cc4c(cc3c2c(OC)c1OC)OCO4
EC50: > 39.8 µM | IC50: > 39.8 µM

Cn1c(NC(=O)C(=O)NC23CC4CC(CC(C4)C2)C3)nc2ccccc21
outcome: inactive

COc1ccc2ccccc2c1Br
EC50: > 200 µM | IC50: > 200 µM

COc1c(Cl)cc(C(=CCCNC(=O)C[C@H]2CC[C@@]3(C)[C@@H](CC[C@@H]4[C@@H]3CC[C@]3(C)[C@@H](CC(=O)NCCC=C(c5cc(Cl)c(OC)c(C(=O)O)c5)c5cc(Cl)c(OC)c(C(=O)O)c5)CC[C@@H]43)C2)c2cc(Cl)c(OC)c(C(=O)O)c2)cc1C(=O)O
EC50: > 200 µM | IC50: 148 µM

O=C1C2=C(CCCCC2)C2CCCCC12O (stereo not given)
EC50: > 200 µM | IC50: > 200 µM

COc1ccc(C(C#N)NNc2nc(C)cc(=O)[nH]2)cc1OC (stereo not given)
EC50: > 794 µM | IC50: 234 µM

CC(=O)Oc1cc(C(F)(F)F)ccc1C(=O)OC1(C)OC(=O)c2ccc(C(F)(F)F)cc2O1 (stereo not given)
EC50: > 200 µM | IC50: 41.7 µM

NC(CSSCC(N)C(=O)NCC(=O)O)C(=O)NCC(=O)O (stereo not given)
EC50: > 708 µM

Cc1ccc(NC(=O)CC2SC(=Nc3ccc(Cl)cc3)NC2=O)cc1C (stereo not given)
EC50: > 51.3 µM | IC50: > 51.3 µM

COc1ccc(N2C(=O)C3c4[nH]c5ccccc5c4C4CCCCCCCCCC4C3C2=O)cc1 (stereo not given)
EC50: > 200 µM | IC50: > 200 µM

CSCCC1OCC2OC(n3ccc(=O)[nH]c3=O)CC2N1O (stereo not given)
EC50: > 200 µM | IC50: > 200 µM

Cn1/c(=N\N=C2\C=C3CCCCC3(C)CC2)sc2ccccc21 (stereo not given)
EC50: > 200 µM | IC50: 155 µM

Cc1ccccc1NC(=O)C(=O)C1CN(c2ccccc2)N=C1N (stereo not given)
EC50: > 209 µM | IC50: > 209 µM

CCOC(=O)C(NC(=O)c1ccccc1)(N1CCN(c2cc3c(cc2F)c(=O)c(C(=O)O)cn3CC)CC1)C(F)(F)F (stereo not given)
EC50: > 200 µM | IC50: 34.7 µM

C=C1[C@H]2CC[C@H]3C45CO[C@@H](CC4=O)C(C)(C)C5=C(O)C(=O)C3(C2)[C@@H]1OC(C)=O
EC50: > 18.6 µM | IC50: > 18.6 µM

O=C(Nc1ccccc1)c1cc(S(=O)(=O)NC2=NC(c3ccccc3)c3cc(Cl)ccc3N2)c(SSc2cc(Cl)c(C(=O)Nc3ccccc3)cc2S(=O)(=O)NC2=NC(c3ccccc3)c3cc(Cl)ccc3N2)cc1Cl (stereo not given)
EC50: > 200 µM | IC50: > 200 µM

C1CC2=C(C1)C1=S(S2)SC2=C1CCC2
outcome: inactive

Cn1nc(-c2ccccc2)c2c(/C=C/c3ccc(Cl)cc3)onc2c1=O
EC50: > 14.5 µM | IC50: > 14.5 µM

O=C(O)C(CS)NCc1c2ccccc2nc2ccccc12 (stereo not given)
outcome: inactive

Cc1nnc2sc(NN)nn12
EC50: > 200 µM | IC50: 107 µM

Cc1cc(=O)c2c(o1)C(=O)c1occc1C2=O
outcome: inactive

Cc1cc(NS(=O)(=O)c2ccc(N=Nc3c(N)n(C)c(=O)n(C)c3=O)cc2)nc(C)n1
EC50: > 200 µM | IC50: > 200 µM

NC(N)=N/N=C(/CC1OC(=O)c2ccccc21)c1ccc2ccccc2c1 (stereo not given)
EC50: > 28.2 µM | IC50: > 28.2 µM

COc1ccccc1NC(=O)CC(=O)N1N=C(C)C(N=Nc2ccc(C(=O)O)cc2)C1=O (stereo not given)
EC50: > 200 µM | IC50: > 200 µM

O=C(Nc1ccc(Br)cc1)C(=O)C(C(=O)c1ccccc1F)C1OC(=O)c2ccccc21 (stereo not given)
EC50: > 263 µM | IC50: 35.5 µM

O=C(Nc1ccccc1)O/N=C1/CCCC/C1=C\c1ccccc1
EC50: > 42.7 µM | IC50: 39.8 µM

CCc1c(O)nc(Nc2nc3ccccc3[nH]2)[nH]c1=O
EC50: > 200 µM | IC50: > 200 µM

CCOC(=O)c1nc2ccc(C(F)(F)F)cc2nc1NCc1ccc(Cl)c(Cl)c1
EC50: > 100 µM | IC50: 17 µM

CCCCCSCCCCCCCC(=O)O
EC50: > 200 µM | IC50: 58.9 µM

C[C@]1(O)CC[C@H]2[C@@H]3CCC4=CC(=O)CC[C@]4(C)[C@@]3(Cl)[C@@H](Cl)C[C@@]21C
EC50: > 200 µM | IC50: > 200 µM

CC(C)N(C(=O)C12C3C4C5(C#N)C3C1(C#N)C5C42I)C(C)C (stereo not given)
EC50: > 617 µM | IC50: 316 µM

Source: PubChem BioAssay AID179 (DTP/NCI, 2004)
